Test [1] concerns the target Tyrosine-protein kinase JAK2 (Homo sapiens, UniProt O60674, V617F).
The species named for another test is Homo sapiens. Briefly: Selectivity ratio of IC50 for human JAK3 expressed in baculovirus to IC50 for human JAK2 expressed in baculovirus.
The target in test [2] is Tyrosine-protein kinase JAK2 (Homo sapiens, UniProt O60674).
Description: Inhibition of GST-tagged recombinant human JAK2 expressed in baculovirus using TK-substrate-biotin as substrate preincubated for 5 mins followed by substrate addition after 30 mins by HTRF assay
Test [3] has as its target T1, Tyrosine-protein kinase JAK3 (Homo sapiens, UniProt P52333).
T1 sequence (P52333 whole entry): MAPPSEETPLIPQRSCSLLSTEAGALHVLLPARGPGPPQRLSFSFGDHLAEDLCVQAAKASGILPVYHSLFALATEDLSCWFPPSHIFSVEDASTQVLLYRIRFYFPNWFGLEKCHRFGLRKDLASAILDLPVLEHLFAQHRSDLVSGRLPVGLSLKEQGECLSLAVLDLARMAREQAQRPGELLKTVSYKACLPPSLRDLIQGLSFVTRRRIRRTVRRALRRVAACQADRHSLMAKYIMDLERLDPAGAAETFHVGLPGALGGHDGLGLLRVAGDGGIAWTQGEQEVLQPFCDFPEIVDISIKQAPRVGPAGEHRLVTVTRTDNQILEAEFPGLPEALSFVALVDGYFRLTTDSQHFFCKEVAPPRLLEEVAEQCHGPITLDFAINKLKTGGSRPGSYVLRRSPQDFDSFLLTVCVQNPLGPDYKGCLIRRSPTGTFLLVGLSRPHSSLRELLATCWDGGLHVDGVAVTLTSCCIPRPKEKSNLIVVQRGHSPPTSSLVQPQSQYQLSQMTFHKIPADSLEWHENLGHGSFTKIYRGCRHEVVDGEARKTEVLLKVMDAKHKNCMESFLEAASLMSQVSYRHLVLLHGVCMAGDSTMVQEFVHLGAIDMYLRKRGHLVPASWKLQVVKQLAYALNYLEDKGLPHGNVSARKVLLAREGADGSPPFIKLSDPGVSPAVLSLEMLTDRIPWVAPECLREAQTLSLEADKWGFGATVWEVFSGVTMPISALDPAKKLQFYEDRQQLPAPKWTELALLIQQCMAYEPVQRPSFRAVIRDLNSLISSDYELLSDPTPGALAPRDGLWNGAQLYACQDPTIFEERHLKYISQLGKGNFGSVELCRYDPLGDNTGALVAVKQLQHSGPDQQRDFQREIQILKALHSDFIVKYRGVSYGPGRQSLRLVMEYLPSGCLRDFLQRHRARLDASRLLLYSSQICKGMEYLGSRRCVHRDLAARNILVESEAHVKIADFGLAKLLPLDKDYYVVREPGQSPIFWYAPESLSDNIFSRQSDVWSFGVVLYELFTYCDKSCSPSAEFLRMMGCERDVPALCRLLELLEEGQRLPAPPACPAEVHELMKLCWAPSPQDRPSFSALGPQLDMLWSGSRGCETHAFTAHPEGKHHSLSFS
Description: Inhibition of GST-tagged recombinant human cytoplasmic JAK3 expressed in baculovirus using TK-substrate-biotin as substrate preincubated for 5 mins followed by substrate addition after 30 mins by HTRF assay

Test [4] has as its target Tyrosine-protein kinase SYK (Homo sapiens, UniProt P43405). Put plainly: Inhibition of SYK (unknown origin).

Each structure is given as a SMILES string.

Tyrosine-protein kinase JAK2 (Homo sapiens, UniProt O60674), sequence (O60674 whole entry): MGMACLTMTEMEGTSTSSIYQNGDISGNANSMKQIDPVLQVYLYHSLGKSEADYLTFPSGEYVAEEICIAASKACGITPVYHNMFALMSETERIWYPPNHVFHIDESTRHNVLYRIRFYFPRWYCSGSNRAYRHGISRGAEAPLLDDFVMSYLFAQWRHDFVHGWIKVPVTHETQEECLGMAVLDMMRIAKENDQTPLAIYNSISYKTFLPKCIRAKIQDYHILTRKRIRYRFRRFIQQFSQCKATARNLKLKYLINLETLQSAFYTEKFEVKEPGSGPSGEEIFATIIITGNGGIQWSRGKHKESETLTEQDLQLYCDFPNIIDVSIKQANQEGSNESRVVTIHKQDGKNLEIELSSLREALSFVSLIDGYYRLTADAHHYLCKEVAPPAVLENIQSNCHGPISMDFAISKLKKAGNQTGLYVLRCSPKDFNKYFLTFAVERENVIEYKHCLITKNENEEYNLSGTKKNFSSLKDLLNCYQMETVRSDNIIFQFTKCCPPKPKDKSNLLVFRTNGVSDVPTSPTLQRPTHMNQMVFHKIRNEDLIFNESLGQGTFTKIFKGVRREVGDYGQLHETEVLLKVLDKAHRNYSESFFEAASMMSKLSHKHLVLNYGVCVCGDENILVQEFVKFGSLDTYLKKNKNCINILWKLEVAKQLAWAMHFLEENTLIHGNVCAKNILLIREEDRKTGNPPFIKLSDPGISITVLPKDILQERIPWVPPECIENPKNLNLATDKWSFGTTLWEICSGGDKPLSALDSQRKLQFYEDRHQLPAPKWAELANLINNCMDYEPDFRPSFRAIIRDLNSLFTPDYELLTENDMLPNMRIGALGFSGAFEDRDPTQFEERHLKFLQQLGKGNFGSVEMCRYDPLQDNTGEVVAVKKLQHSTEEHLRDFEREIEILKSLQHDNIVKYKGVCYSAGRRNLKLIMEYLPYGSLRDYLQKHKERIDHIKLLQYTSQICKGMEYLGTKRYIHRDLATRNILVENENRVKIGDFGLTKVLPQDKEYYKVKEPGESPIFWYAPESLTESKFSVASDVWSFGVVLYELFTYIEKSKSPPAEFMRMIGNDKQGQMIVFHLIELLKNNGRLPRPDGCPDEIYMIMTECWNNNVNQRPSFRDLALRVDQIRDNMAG
Tyrosine-protein kinase JAK2 (Homo sapiens, UniProt O60674, V617F), sequence (O60674 whole entry V617F): as the sequence (O60674 whole entry) above, with V617F counted along it

For `CS(=O)(=O)N1CCc2oc(-c3ccnc(Nc4ccc(OCCN5CCCC5)cc4)n3)cc2C1`, the IC50 (commonly the midpoint of a concentration-inhibition curve) in test [1] turned out to be 1260 nM; in test [2] it was 164 nM; in test [3], 501 nM. For the same compound, the Ratio IC50 in the test listed under Homo sapiens was 3.1.
Turning to `Cc1cnc(Nc2ccc(N3CCOCC3)cc2)nc1-c1cc2cc(COCC(F)(F)F)ccc2o1`, the Ratio IC50 in the test listed under Homo sapiens worked out at 32.5. For the same compound, the IC50 in test [2] was 25.7 nM; in test [3], 836 nM.
As to `CN1CCN(c2ccc(Nc3nccc(-c4cc5c(o4)CCN(C(=O)CC#N)C5)n3)cc2)CC1`, the IC50 was found to be 7440 nM in test [1], 53.7 nM in test [2] and 136 nM in test [3]. In addition, in the test filed under Homo sapiens, the Ratio IC50 was determined as 2.5.
For `Cc1cnc(Nc2ccc(OCC(=O)O)cc2)nc1-c1cc2ccccc2o1`, the Ratio IC50 in the test listed under Homo sapiens came to 21.7. The IC50 came to 16.6 nM in test [2] and 359 nM in test [3].
For the compound `CCOC(=O)COc1cccc(Nc2ncc(C)c(-c3cc4ccccc4o3)n2)c1`, the Ratio IC50 in the test listed under Homo sapiens was 4.6. In addition, the IC50 turned out to be 18.9 nM in test [2] and 87.6 nM in test [3].
`CN1CCN(c2ccc(Nc3nccc(-c4cc5c(o4)CCN(S(C)(=O)=O)C5)n3)cc2)CC1` yielded a 50% inhibitory concentration (IC50) in test [3] of 204 nM.
Take `N#Cc1ccc2oc(-c3nc(Nc4ccc(N5CCNCC5)cc4)ncc3C(F)(F)F)cc2c1`: the Ratio IC50 in the test listed under Homo sapiens was determined as 1.5. Besides, the IC50 is 137 nM in test [2] and 202 nM in test [3].
`CS(=O)(=O)N1CCc2oc(-c3ccnc(Nc4ccc(N5CCOCC5)cc4)n3)cc2C1`: the Ratio IC50 in the test listed under Homo sapiens amounted to 5.3. In addition, the IC50 was 42.9 nM in test [2] and 226 nM in test [3].
On to `Cc1cnc(Nc2ccc(N3CCOCC3)cc2)nc1-c1cc2c(o1)CCN(S(C)(=O)=O)C2`, for which the IC50 in test [1] was 1250 nM; in test [4], 49.8 nM; in test [2] it was 0.7 nM; in test [3] it was 23.2 nM. Further, in the test filed under Homo sapiens, the Ratio IC50 came out at 33.1.
With `N#CCC(=O)N1CCc2oc(-c3ccnc(Nc4ccc(N5CCOCC5)cc4)n3)cc2C1`, the IC50 in test [1] was found to be 5520 nM; in test [2], 13.2 nM; in test [3] it was 140 nM. For the same compound, in the test listed under Homo sapiens, the Ratio IC50 is 10.6.
`CCOC(=O)COc1ccc(Nc2ncc(C)c(-c3cc4ccccc4o3)n2)cc1`: the Ratio IC50 in the test listed under Homo sapiens was 3.7. Also, the results for the IC50 in test [2] and in test [3] were 324 nM and 1200 nM, respectively.
As to `Cc1cnc(Nc2ccc(N3CCOCC3)cc2)nc1-c1cc2ccccc2o1`, the IC50 in test [3] came out at 183 nM. This counts as sub-micromolar.
On to `CS(=O)(=O)N1CCc2oc(-c3nc(Nc4ccc(OCCN5CCCC5)cc4)ncc3F)cc2C1`, for which the Ratio IC50 in the test listed under Homo sapiens worked out at 3.2. In addition, the IC50 in test [2] is 55.4 nM; in test [3], 176 nM.
For the compound `Cc1cnc(Nc2ccc(/C=C/C(=O)NO)cc2)nc1-c1cc2ccccc2o1`, the Ratio IC50 in the test listed under Homo sapiens worked out at 7. Besides, the IC50 in test [2] is 226 nM; in test [3], 1580 nM.
Consider `Cc1cnc(Nc2ccc(N3CCOCC3)cc2)nc1-c1cc2cc(C#N)ccc2o1`, for which the IC50 was 3090 nM in test [1], 10.4 nM in test [2] and 364 nM in test [3]. Besides, the Ratio IC50 in the test listed under Homo sapiens was found to be 35.
As to `CC1CC(C)CN(c2ccc(Nc3ncc(C(F)(F)F)c(-c4cc5ccc(C#N)cc5o4)n3)cc2)C1` (stereo not drawn), the Ratio IC50 in the test filed under Homo sapiens was determined as 0.7. For the same compound, the IC50 in test [2] was 7090 nM; in test [3], 5170 nM.
Consider `COc1cc(Nc2ncc(F)c(-c3cc4c(o3)CCN(S(C)(=O)=O)C4)n2)cc(OC)c1OC`, for which the Ratio IC50 in the test listed under Homo sapiens was 18.9. For the same compound, the IC50 in test [2] stood at 9.4 nM; in test [3], 178 nM.

The values are drawn from ChEMBL document CHEMBL3867460, “Identification of 4-(2-furanyl)pyrimidin-2-amines as Janus kinase 2 inhibitors” (Bioorg Med Chem, 2017).
